The results in this text go back to patent US9593097B2, “Axl inhibitors” (Pfizer Inc., priority 2014, dated 2017).

This test addresses Axl phosphorylation in 293MSR-AxlWT6 cells (Homo sapiens (Human), UniProt P30530). In words: Cellular Axl phosphorylation ELISA assay (Gas6-stimulated 293MSR-AxlWT6 cells). It counts as cell-based. Particulars: Table 4A, read-out: CELL AXL IC50. As for the experimental part: Cellular Axl Phosphorylation ELISA Assay
After 6-7 hrs in tissue culture incubator at 37° C. 5% CO2, medium was removed, serum-free medium was added (with 0.04% bovine serum albumin) and plates were returned to incubator where they remained overnight. […] Media was then removed and lysis buffer was added to wells and shaken at 4° C. for 30 min to generate protein lysates. Subsequently, phosphorylation of Axl was assessed by a sandwich ELISA method using a DuoSet IC Human Phospho-Axl ELISA assay kit (R&D System), an immobilized mouse anti-human Axl antibody and an anti-phospho-tyrosine-HRP antibody as a detection antibody. Antibody-coated plates were (a) incubated in presence of protein lysates at room temperature for 2 hrs, (b) washed seven times in 0.1% Tween 20 in PBS, (c) incubated with secondary antibody (a horseradish peroxidase-conjugated […]) for 2 hrs, (d) washed seven times again, (e) TMB peroxidase substrate (Bio-Rad) was added to initiate a colorimetric reaction and stopped by adding 0.2 N H2SO4, and (f) measured at OD 450 nm using a spectrophotometer. IC50 values were calculated by concentration-response curve fitting using a four-parameter analytic method and reported in μM.
For Table 4B, IC50 values were calculated by concentration-response curve fitting using a four-parameter analytic method and reported in nM.
On the technique in general: An ELISA detects its analyte on a solid surface through an enzyme-linked reagent.

What is called IC50 is the point on the concentration scale where inhibition reaches its midpoint.

Chain of Axl phosphorylation in 293MSR-AxlWT6 cells (P30530 26-894): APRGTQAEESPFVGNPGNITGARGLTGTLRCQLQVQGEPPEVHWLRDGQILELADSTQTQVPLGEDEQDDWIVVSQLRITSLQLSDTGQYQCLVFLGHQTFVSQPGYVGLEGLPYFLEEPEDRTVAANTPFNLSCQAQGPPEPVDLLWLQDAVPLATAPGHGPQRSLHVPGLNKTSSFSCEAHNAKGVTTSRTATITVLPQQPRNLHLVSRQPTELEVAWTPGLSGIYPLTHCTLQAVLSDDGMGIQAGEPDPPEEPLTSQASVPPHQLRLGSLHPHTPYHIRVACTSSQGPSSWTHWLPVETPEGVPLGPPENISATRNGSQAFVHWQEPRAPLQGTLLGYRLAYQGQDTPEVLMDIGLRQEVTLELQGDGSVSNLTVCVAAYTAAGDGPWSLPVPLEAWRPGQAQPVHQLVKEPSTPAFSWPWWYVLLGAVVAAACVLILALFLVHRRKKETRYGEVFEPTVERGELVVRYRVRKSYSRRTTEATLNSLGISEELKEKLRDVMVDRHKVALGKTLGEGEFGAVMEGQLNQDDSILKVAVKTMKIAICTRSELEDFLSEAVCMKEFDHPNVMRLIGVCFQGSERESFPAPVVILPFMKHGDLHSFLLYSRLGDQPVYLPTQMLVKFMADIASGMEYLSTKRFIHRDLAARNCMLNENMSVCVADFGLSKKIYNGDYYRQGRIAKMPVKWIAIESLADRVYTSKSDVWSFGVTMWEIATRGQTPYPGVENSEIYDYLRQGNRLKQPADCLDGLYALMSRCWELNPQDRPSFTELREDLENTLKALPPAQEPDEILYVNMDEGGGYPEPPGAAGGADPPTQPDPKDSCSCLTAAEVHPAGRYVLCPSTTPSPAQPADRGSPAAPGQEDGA

For the compound `CN(C)CCOc1ccc(C(N)=O)nc1C1CCN(c2cc(C(=O)NC3CCC3)nc(OC[C@H]3C[C@H]3C#N)n2)CC1` [Example 18, 6-(4-{6-carbamoyl-3-[2-(dimethylamino)ethoxy]pyridin-2-yl}piperidin-1-yl)-2-{[(1S,2R)-2-cyanocyclopropyl]methoxy}-N-cyclobutyl-pyrimidine-4-carboxamide], the 50% inhibitory concentration (IC50) came to 64.9 nM.
The figure for `COC[C@@H](C)Oc1nc(C(=O)NC23CC(C2)C3)nc(N2CCC(c3ccc(N)c(C(N)=O)n3)CC2)n1` [Example 54, 4-[4-(5-amino-6-carbamoylpyridin-2-yl)piperidin-1-yl]-N-(bicyclo[1.1.1]pent-1-yl)-6-{[(2R)-1-methoxypropan-2-yl]oxy}-1,3,5-triazine-2-carboxamide] is 5.27 nM.
In the case of `N#C[C@@H]1C[C@@H]1COc1nc(C(=O)NC23CC(C2)C3)cc(N2CC[C@@H](c3n[nH]c4ncccc34)[C@@H](F)C2)n1` (single isomer, unassigned) [Example 78], the IC50 stood at 8.42 nM.
The result for `N#CC1(COc2nc(C(=O)NCC(F)(F)F)nc(N3CCC(c4c[nH]c5nccnc45)CC3)n2)CC1` [Example 132, 4-(4-(5H-pyrrolo[2,3-b]pyrazin-7-yl)piperidin-1-yl)-6-((1-cyanocyclopropyl)methoxy)-N-(2,2,2-trifluoroethyl)-1,3,5-triazine-2-carboxamide] reads 231 nM; that for `C[C@H](CO)NC(=O)c1cc(N2CCC(c3n[nH]c4ncccc34)CC2)nc(OCC2CC(F)(F)C2)n1` [Example 47, 2-[(3,3-difluoro-cyclobutyl)methoxy]-N-[(2R)-1-hydroxypropan-2-yl]-6-[4-(1H-pyrazolo[3,4-b]pyridin-3-yl)piperidin-1-yl]pyrimidine-4-carboxamide], 3.84 nM.
The result for `CCNC(=O)c1cc(N2CCC(COc3cc(C#N)cnc3N)CC2)nc(O[C@H](C)COC)n1` [Example 21, 6-(4-{[(2-amino-5-cyanopyridin-3-yl)oxy]methyl}piperidin-1-yl)-N-ethyl-2-{[(2R)-1-methoxypropan-2-yl]oxy}pyrimidine-4-carboxamide] reads 37 nM; that for `COc1ccnc2[nH]cc(C3CCN(c4nc(OC[C@H]5C[C@H]5C#N)nc(C(=O)N[C@@H](C)C(F)(F)F)n4)CC3)c12` [Example 379, 4-{[(1S,2R)-2-cyanocyclopropyl]methoxy}-6-[4-(4-methoxy-1H-pyrrolo[2,3-b]pyridin-3-yl)piperidin-1-yl]-N-[(2S)-1,1,1-trifluoropropan-2-yl]-1,3,5-triazine-2-carboxamide], 0.2 nM; that for `N#C[C@@H]1C[C@@H]1COc1nc(C(=O)NCC(F)(F)F)nc(N2CCC(c3ccc(N)c(C(N)=O)n3)CC2)n1` [Example 89, 4-[4-(5-amino-6-carbamoylpyridin-2-yl)piperidin-1-yl]-6-{[(1S,2R)-2-cyanocyclopropyl]methoxy}-N-(2,2,2-trifluoroethyl)-1,3,5-triazine-2-carboxamide], 134 nM.
The figure for `CC(C)(C)NC(=O)c1cc(N2CCC(c3n[nH]c4ncncc34)CC2)nc(OC[C@H]2C[C@H]2C#N)n1` [Example 48, N-tert-butyl-2-{[(1S,2R)-2-cyanocyclopropyl]methoxy}-6-[4-(1H-pyrazolo[3,4-d]pyrimidin-3-yl)piperidin-1-yl]pyrimidine-4-carboxamide] is 38.1 nM; for `CCOc1nc(C(=O)NC23CC(C2)C3)cc(N2CCC(c3nc(C(N)=O)ccc3OCCN(C)C)CC2)n1` [Example 41, N-(bicyclo[1.1.1]pent-1-yl)-6-(4-{6-carbamoyl-3-[2-(dimethylamino)ethoxy]pyridin-2-yl}piperidin-1-yl)-2-ethoxypyrimidine-4-carboxamide] it is 124 nM.
For the compound `CS(=O)(=O)COc1ccnc2[nH]nc(C3CCN(c4cc(C(=O)NC56CC(C5)C6)nc(OC[C@H]5C[C@H]5C#N)n4)CC3)c12` [Example 67, N-(bicyclo[1.1.1]pent-1-yl)-2-{[(1S,2R)-2-cyanocyclopropyl]methoxy}-6-(4-{4-[(methylsulfonyl)methoxy]-1H-pyrazolo[3,4-b]pyridin-3-yl}piperidin-1-yl)pyrimidine-4-carboxamide], the IC50 was 18.7 nM.
The result for `CC(CN(C)C)NC(=O)c1cc(N2CCC(c3ccc(N)c(C(N)=O)n3)CC2)nc(OCC2CC2)n1` (centres unmarked) [Example 34, 6-[4-(5-amino-6-carbamoylpyridin-2-yl)piperidin-1-yl]-2-(cyclopropyl-methoxy)-N-[1-(dimethylamino)propan-2-yl]pyrimidine-4-carboxamide] reads 30.5 nM; that for `N#C[C@@H]1C[C@@H]1COc1nc(C(=O)NCC(F)(F)F)cc(N2CCC(COc3cncnc3N)CC2)n1` [Example 33, 6-(4-{[(4-aminopyrimidin-5-yl)oxy]methyl}piperidin-1-yl)-2-{[(1S,2R)-2-cyanocyclopropyl]methoxy}-N-(2,2,2-trifluoroethyl) pyrimidine-4-carboxamide], 23.4 nM.
Turning to `C[C@H](CO)NC(=O)c1cc(N2CCC(c3n[nH]c4ncccc34)CC2)nc(OCC2CC2)n1` [Example 72, 2-(cyclopropyl-methoxy)-N-[(2R)-1-hydroxypropan-2-yl]-6-[4-(1H-pyrazolo[3,4-b]pyridin-3-yl)piperidin-1-yl]pyrimidine-4-carboxamide], the IC50 stood at 4.31 nM.
Regarding `C[C@H](CO)Oc1nc(C(=O)NC23CC(C2)C3)cc(N2CCC(c3n[nH]c4ncccc34)CC2)n1` [Example 69, N-(bicyclo[1.1.1]pent-1-yl)-2-{[(2R)-1-hydroxypropan-2-yl]oxy}-6-[4-(1H-pyrazolo[3,4-b]pyridin-3-yl)piperidin-1-yl]pyrimidine-4-carboxamide], the concentration for half-maximal inhibition (IC50) came to 228 nM.
The result for `COC[C@@H](C)Oc1nc(C(=O)NC2CCC2)cc(N2CCC(c3ccc(N)c(C(N)=O)n3)CC2)n1` [Example 4, 6-[4-(5-amino-6-carbamoylpyridin-2-yl)piperidin-1-yl]-N-cyclobutyl-2-{[(2R)-1-methoxypropan-2-yl]oxy}pyrimidine-4-carboxamide] reads 2.83 nM; that for `N#C[C@@H]1C[C@@H]1COc1nc(C(=O)NC23CC(C2)C3)cc(N2CCC(c3n[nH]c4ncccc34)C(F)C2)n1` (single isomer, unassigned) [Example 74], 15.5 nM; that for `CCNC(=O)c1nc(OCC2(C#N)CC2)nc(N2CCC(c3n[nH]c4ncccc34)CC2)n1` [Example 133, 4-(4-(1H-pyrazolo[3,4-b]pyridin-3-yl)piperidin-1-yl)-6-((1-cyanocyclopropyl)methoxy)-N-ethyl-1,3,5-triazine-2-carboxamide], 285 nM.
With `CCNC(=O)c1cc(N2CCC(COc3cc(-c4cnn(C)c4)cnc3N)CC2)nc(OC[C@H]2C[C@H]2C#N)n1` [Example 25, 6-[4-({[2-amino-5-(1-methyl-1H-pyrazol-4-yl)pyridin-3-yl]oxy}methyl)piperidin-1-yl]-2-{[(1S,2R)-2-cyanocyclopropyl]methoxy}-N-ethylpyrimidine-4-carboxamide], the concentration for half-maximal inhibition (IC50) worked out at 1.78 nM.
The figure for `COc1ccnc2[nH]cc(C3CCN(c4nc(OC[C@H]5C[C@H]5C#N)nc(C(=O)NCC(F)(F)F)n4)CC3)c12` [Example 380, 4-{[(1S,2R)-2-cyanocyclopropyl]methoxy}-6-[4-(4-methoxy-1H-pyrrolo[2,3-b]pyridin-3-yl)piperidin-1-yl]-N-(2,2,2-trifluoroethyl)-1,3,5-triazine-2-carboxamide] is 0.72 nM.
